Data taken from patent publication US8716228B2, “GPR54 agonists or antagonists for treatment of diseases presenting behavioral abnormalities” (YEDA Research and Development Co. Ltd., priority 2009, dated 2014).
Counter-ions that a name gives are not always drawn. Square brackets hold non-standard residues; d marks the D form. Peptide text beside a SMILES is read from it. dPhe(4-Cl) = N[C@H](Cc1ccc(Cl)cc1)C(=O)O; d2Nal = N[C@H](Cc1ccc2ccccc2c1)C(=O)O; dCit = NC(=O)NCCC[C@@H](N)C(=O)O; d3Pal = N[C@H](Cc1cccnc1)C(=O)O

Assays:
[1] = tested on: naive C57B1/6 mice; assay: PPI in naive C57B1/6 mice; format: in vivo, mouse; settings: naive animals, GnRH receptor antagonist alone
Protocol: Prepulse Inhibition (PPI). PPI testing was performed within startle chambers purchased from Med Associates Inc (Med Associates, St. Albans, Vt., USA). […] Briefly, during a period of acclimation, a 65-dB background noise was applied for 5-min, and continued throughout the test session. All sessions for testing of PPI consisted of startle trials (pulse alone, 40-ms, 120-dB), prepulse trials (prepulse 20-ms, 69, 73, 78, or 81 dB followed by a (100-ms delay) pulse), and no-stimulus trials. All sessions were presented in pseudo-random order. The average time between trials was 15 s (range 12-30 s). PPI was calculated as: % PPI=100−{[(startle response for prepulse+pulse)/(startle response for pulse-alone)]×100}. […] Data from no-stimulation trials are not included in the results because the values obtained were negligible relative to values from trials containing startle stimuli.
Neurotensin receptor antagonist SR142948 (TOCRIS COOKSON LTD) was used at 100 μg/kg 60 min before the PPI analysis.
GnRH receptor antagonist Cetrorelix Acetate (Cetrotide™, Anaspec Inc. Fremont, Calif.). Control mice were administered the same volume of PBS.
To examine whether Kp-10 can elevate PPI in naïve mice in a dose dependent manner, we analyzed PPI in C57B1/6 mice that were injected i.p with 100 μl of 1/10/100 μM Kp-10 (SEQ ID NO:3).

[2] = tested on: C57B1/6 mice; assay: PPI in MK-801 pharmacological model of schizophrenia; format: in vivo, mouse; settings: acute MK-801 0.1 mg/kg i.p., PPI 15 min later, vs naive mice
Protocol: (§1) Prepulse Inhibition (PPI). PPI testing was performed within startle chambers purchased from Med Associates Inc (Med Associates, St. Albans, Vt., USA). PPI was analyzed as described previously (Kipnis et al., 2004). Briefly, during a period of acclimation, a 65-dB background noise was applied for 5-min, and continued throughout the test session. All sessions for testing of PPI consisted of startle trials (pulse alone, 40-ms, 120-dB), prepulse trials (prepulse 20-ms, 69, 73, 78, or 81 dB followed by a (100-ms delay) pulse), and no-stimulus trials. All sessions were presented in pseudo-random order. The average time between trials was 15 s (range 12-30 s). PPI was calculated as: % PPI=100−{[(startle response for prepulse+pulse)/(startle response for pulse-alone)]×100}. In all the experiments, there were no significant differences between groups in trials of startle reactivity to pulse alone, and in no-stimulation trials. Data from no-stimulation trials are not included in the results because the values obtained were negligible relative to values from trials containing startle stimuli. Reduced PPI is associated with schizophrenia-related behavior. […]
To further establish the antipsychotic effect of Kp-10, we evaluated its ability to overcome psychotic symptoms induced by the psycho-mimetic agent, MK-801 (N-methyl-D-aspartate (NMDA) antagonist), which induces neurotransmitter imbalance. […]

[3] = tested on: naive C57B1/6 mice; settings: neurotensin receptor antagonist alone (Binder et al., 2001); cited from earlier work
[4] = tested on: poly I:C rat model for schizophrenia; settings: prophylactic treatment in peri-adolescence; cited from earlier work
[5] = tested on: offspring of poly I:C treated dams; assay: PPI in offspring of poly I:C treated dams (mouse model for schizophrenia); format: in vivo; settings: pregnant C57B1/6 mice 4 mg/kg poly I:C, vs saline
Protocol: (§2) Poly I:C administration. Rats or mice were bred, and the first day after copulation was defined as day 1 of pregnancy. On gestation day 15, pregnant animals were injected intravenously with 4.0 mg/kg poly I:C (Sigma-Aldrich, Israel) dissolved in saline, or an equivalent volume of saline as a control. Both rats and mice received the same protocol of poly I:C administration.
Prepulse Inhibition (PPI). PPI testing was performed within startle chambers purchased from Med Associates Inc (Med Associates, St. Albans, Vt., USA). PPI was analyzed as described previously (Kipnis et al., 2004). Briefly, during a period of acclimation, a 65-dB background noise was applied for 5-min, and continued throughout the test session. All sessions for testing of PPI consisted of startle trials (pulse alone, 40-ms, 120-dB), prepulse trials (prepulse 20-ms, 69, 73, 78, or 81 dB followed by a (100-ms delay) pulse), and no-stimulus trials. All sessions were presented in pseudo-random order. The average time between trials was 15 s (range 12-30 s). PPI was calculated as: % PPI=100−{[(startle response for prepulse+pulse)/(startle response for pulse-alone)]×100}. In all the experiments, there were no significant differences between groups in trials of startle reactivity to pulse alone, and in no-stimulation trials. Data from no-stimulation trials are not included in the results because the values obtained were negligible relative to values from trials containing startle stimuli. Reduced PPI is associated with schizophrenia-related behavior. The same protocol was used in mice and rats (FIG. 1A).
Kisspeptin treatment. Mice were injected i.p with 100 μl of 1/10/100 μM Kp-10 peptide (SEQ ID NO:3) (synthesized at the Weizmann Institute of Science, or Sigma-Aldrich, Israel) dissolved in PBS, 30 minutes before the PPI analysis.
The ability of a normal lymphocyte population to reverse abnormal PPI behavior in immune deficient mice, encouraged us to test whether immune cells derived from the offspring of poly I:C treated dams would reverse the abnormal behavior of SCID mice in the PPI test. […]

[6] = tested on: BDNF; assay: qPCR of BDNF transcripts in hippocampus; format: in vivo, mouse; settings: mRNA, offspring of poly I:C treated dams treated at 8 weeks with Kp-10 or PBS
Protocol: RNA purification, cDNA synthesis, reverse transcription PCR, and real-time quantitative PCR analysis. For RNA expression analysis, cells from whole hippocampi were extracted with TRI Reagent (MRC, Cincinnati, Ohio), and total cellular RNA was purified from the lysates using the RNeasy kit (Qiagen, Hilden, Germany). RNA (1 μg) was converted to cDNA using SuperScript II (Promega, Madison, Wis.). The amplification cycle was 95° C. for 5 s, 60° C. for 20 s, and 72° C. for 15 s.
The following primers were used: […]
To understand what is the mechanism behind the prophylactic treatment of Kp-10 we examined the expression of total brain-derived neurotrophic factor (BDNF) and its exon transcripts 1-4 according to Zajac et al. (2010). […] Recently, association between a BDNF variant and childhood-onset mood disorder was established (Strauss et al., 2005). Therefore, we studied mRNA expression of a few BDNF transcripts in the hippocampus of offspring of PBS treated dams (n=5) compared to offspring of poly I:C treated dams, which were treated at 8 weeks with either Kp-10 (n=6) or PBS (n=6) (Table 3). […] Treatment with Kp-10 at 8 weeks of age induced an increase in the expression of BDNF1 transcript to the normal level (Table 3(ii)). […] In addition, no significant difference was found between the groups in the expression of BDNF transcripts 3 and 4 (Table 3(iv and v)). […] The involvement of BDNF in schizophrenia and its effect on PPI levels are still a debate. Our observations of changes in expression of selective forms of BDNF might explain this apparent dichotomy.

[7] = tested on: lymphocytes; assay: Lymphocyte proliferation assay after MBP68-86 vaccination; format: cell-based, Lewis rats; settings: offspring after prenatal poly I:C treatment
[8] = tested on: Lewis rats; assay: Experimental autoimmune encephalomyelitis (EAE); format: in vivo; settings: female offspring after prenatal poly I:C treatment, MBP68-86 immunization
[9] = tested on: Lewis rats; assay: PPI in offspring of poly I:C treated Lewis rats; format: in vivo; settings: pregnant Lewis rats 4 mg/kg poly I:C, vs progeny of saline-treated animals
Protocol: as §2
as §1, with “trials.” for “trials. Data from no-stimulation trials are not included in the results because the values obtained were negligible relative to values from trials containing startle stimuli. Reduced PPI is associated with schizophrenia-related behavior.”

[10] = tested on: KiSS-1; assay: qPCR of KiSS-1 mRNA in hippocampus; format: in vivo, mouse; settings: adult poly I:C affected mice vs age-matched controls

Q: For `CC(=O)N[C@H](Cc1ccc2ccccc2c1)C(=O)N[C@H](Cc1ccc(Cl)cc1)C(=O)N[C@H](Cc1cccnc1)C(=O)N[C@@H](CO)C(=O)N[C@@H](Cc1ccc(O)cc1)C(=O)N[C@H](CCCNC(N)=O)C(=O)N[C@@H](CC(C)C)C(=O)N[C@@H](CCCNC(=N)N)C(=O)N1CCC[C@H]1C(=O)N[C@H](C)C(N)=O` [Cetrotide™, Cetrorelix Acetate, reference compound] (Ac-[d2Nal][dPhe(4-Cl)][d3Pal]SY[dCit]LRP[dA]-NH2), which PPI [1] is on record?
A: did not affect PPI

Q: Which PPI response [2] does the source give for `C[C@]12N[C@H](Cc3ccccc31)c1ccccc12` [MK-801, [+]-5-methyl-10,11-dihydro-5H-dibenzo-[a,d]-cyclohepten-5,10-imine hydrogen maleate, reference compound] here?
A: significantly reduced PPI response

Q: For `COc1cccc(OC)c1-c1cc(C(=O)NC2(C(=O)O)C3CC4CC(C3)CC2C4)nn1-c1ccc(C(=O)N(C)CCCN(C)C)cc1C(C)C` (centres unmarked) [NTA], which PPI levels [3] is on record?
A: does not affect PPI levels

Q: Which “onset of psychotic symptoms and abnormal brain development” value [4] does the source give for `Cc1nc2n(c(=O)c1CCN1CCC(c3noc4cc(F)ccc34)CC1)CCCC2` [Risperidone] here?
A: prevented the onset psychotic symptoms and abnormal brain development

Q: With “polyriboinosinic-polyribocytidylic acid [poly I:C]” as the compound, how does the “PPI in adult offspring” value [5] read?
A: reduced PPI

Q: And the “Expression of BDNF1 transcript” value [6]?
A: 1.2 ± 0.3

Q: And the “Expression of BDNF2 transcript” value [6]?
A: 5.7 ± 0.1

Q: And the “Expression of BDNF3 transcript” value [6]?
A: 6.2 ± 0.9

Q: What about the “Expression of BDNF4 transcript” value [6] of the same compound?
A: 7.4 ± 1

Q: And the “Expression of BDNF transcript (total BDNF)” value [6]?
A: 1.7 ± 0.6

Q: And the “Lymphocyte proliferation (PI ± SD)” value ([7]; antigen Con-A)?
A: 126 ± 67

Q: What about the “Lymphocyte proliferation (PI ± SD)” value ([7]; antigen MBP68-86) of the same compound?
A: 1.0 ± 0.11

Q: What about the “Lymphocyte proliferation (PI ± SD)” value ([7]; antigen Ova) of the same compound?
A: 1.2 ± 0.09

Q: And the “Duration of EAE (day ± SEM)” value [8]?
A: 5.08 ± 0.3 days

Q: What about the “Onset of EAE (day ± SEM)” value [8] of the same compound?
A: 11.17 ± 0.2 days

Q: And the “PPI in adult offspring” value [9]?
A: reduction in PPI

Q: And the “KiSS-1 mRNA levels in hippocampus” value [10]?
A: reduction in KiSS-1 mRNA levels
